Data taken from US12543736B2, “Herbicidal compositions comprising mesotrione” (BASF SE, priority 2024, dated 2026).

Tests used:
Commelina benghalensis = experiment: Example 4 post-emergence application A-1, B and C-19, COMBE; type: in vivo; conditions: growth stage 13, 21 DAT, g ai/ha: A-1 1, B 50, C-19 30
Procedure: (§1) In the examples below, using the method of S. R. Colby (1967) “Calculating synergistic and antagonistic responses of herbicide combinations”, Weeds 15, p. 22ff., the value E, which is expected if the activity of the individual active compounds is only additive, was calculated:
(§2) [formula] • where • X=percent activity using active herbicide A at an application rate a; • Y=percent activity using active herbicide B (e.g. mesotrione) at an application rate b; • E=expected activity (in %) by A+B at application rates a+b.
(§3) If the value found experimentally is higher than the value E calculated according to Colby, a synergistic effect is present.
(§4) Evaluation was carried out using a scale from 0 to 100. 100 means no emergence of the plants, or complete destruction of at least the above-ground parts, and 0 means no damage or normal course of growth. A good herbicidal activity is given at values of at least 70, and very good herbicidal activity is given at values of at least 85.
(§5) Post-Emergence Application of Herbicide A-1 (A-1), Mesotrione (B) and Pyroxasulfone (C-19)
(§6) Herbicide A-1 (342 g/l), mesotrione (100 g/l) and pyroxasulfone (500 g/l) were, together with addition of 0.5 v/v % MSO (methylated sed oil) as adjuvant, formulated in water as distribution medium (water volume 200 l/ha) and sprayed with commercial flat fan nozzles.

Zea mays = experiment: Example 4 post-emergence application A-1, B and C-19, ZEAMX; type: in vivo; conditions: growth stage 12, 21 DAT, g ai/ha: A-1 2, B 50, C-19 30
Procedure: as §1, §2, §3, §4, §5, §6

Cn1nc(C(F)(F)F)c(CS(=O)(=O)C2=NOC(C)(C)C2)c1OC(F)F [C-19, pyroxasulfone]
% herbicidal activity (Commelina benghalensis): 15%
% herbicidal activity (Zea mays): 0%
